Legend:
IL-2 production = experiment: Inhibition of IL-2 production measured by competitive EIA in PMA/PHA-activated Jurkat T cells; assay type: cell-based, human; conditions: for IC50: PMA/PHA-activated Jurkat T cells, EIA, means of two experiments, standard deviation in parentheses
Protocol: (§1) Exposure of human Jurkat leukemia T-cells to phorbol myristate acetate (PMA/PHA) and THP-1 cells to lipopolysaccharide (LPS), activates NF-κB mediated gene transcription of several pro-inflammatory cytokines, including IL-2, IL-6, IL-8 and TNF-α (Baldwin, Ann. Rev. Immunol. 14: 649–683 (1996); Grilli et al., Int. Rev. Cytol. 143: 1–62 (1993)). […] The inhibition of IL-2 was evaluated in Jurkat cells after PMA/PHA activation (Mahon and O'Neill, J. Biol. Chem. 270: 28557–28564 (1995); Lindgren et al., Molec. Immunol. 38V 267–277 (2001)). The inhibition of TNF-α was evaluated in THP-1 cells after LPS activation (Aikawa et al., Inflamm. Res. 51: 188–194 (2002)). […] After 24 hours, the cell free supernatant fractions were collected and subjected to EIA for the quantification of total IL-2 production.
To each well of a flat bottomed 96 well culture plate 0.2 mL 1×10^6 Jurkat E6-1 cells/mL were added. Each sample was then treated in duplicate with the compounds in DMSO at either 10 μM, 1 μM, 0.1 μM or 10 ηM and allowed to incubate for thirty minutes at 37° C., 5% CO2. Cell free supernatant fractions were collected from stimulated cultures incubated for 24 hr at 37° C., 5% CO2. Cultures were stimulated with phytohemagglutinin (PHA, Sigma-Aldrich, St. Louis, Mo.) at 1 μg/mL; and phorbol myristate acetate (PMA, Sigma-Aldrich, St. Louis, Mo.) at 50 ng/mL. The concentration of IL-2 in each sample was then measured using a competitive enzyme immunoassay (Neogen Corporation, Lansing, Mich.) according to the manufacturer's protocol. Known IL-2 concentrations were plotted and fit a 4 parameter logistic curve. Unknown concentrations were then extrapolated from the standard curve.

TNF-α production = experiment: Inhibition of TNF-α production measured by competitive EIA in LPS stimulated THP-1 cells; assay type: cell-based, human; conditions: for IC50: EIA, 3 hr incubation, means of two experiments, standard deviation in parentheses
Protocol: as §1
The assay measured the ability of the compounds to inhibit TNF-α production in LPS stimulated THP-1 cells (Aikawa et al., Inflamm. Res. 51V 188–194 (2002)).
THP-1 cells are grown in RPMI-1640 Media (Gibco-BRL, Rockville, Md.) supplemented with 5% fetal bovine serum, penicillin (614 ηg/mL), streptomycin (10 μg/mL) and HEPES buffer, pH 7.2 at 37° C., 5% CO2. To each well of a flat bottomed 96 well culture plate 0.2 mL 1×10^6 THP-1 cells/mL were added. Each sample was then treated in duplicate with the compounds in DMSO at either 10 μM, 1 μM, 0.1 μM or 10 ηM and allowed to incubate for thirty minutes at 37° C., 5% CO2. Cell free supernatant fractions were collected from stimulated cultures incubated for 3 hr at 37° C., 5% CO2. Cultures were stimulated with LPS (Sigma-Aldrich, St. Louis, Mo.) at 1 μg/mL. The concentration of TNF-α in each sample was then measured using a competitive enzyme immunoassay (Neogen Corporation, Lansing, Mich.) according to the manufacturer's protocol. To make a standard curve, known TNF-α concentrations were plotted and fitted to a 4 parameter logistic curve. Unknown concentrations were then extrapolated from the standard curve.

CEM leukemia cells = experiment: Inhibition of cell growth in CEM leukemia cells (trypan blue counting); assay type: cell-based; conditions: 48 hour, means of two experiments, standard deviation in parentheses
Protocol: Cells were treated at different concentrations ranging from 10 ηM to 5 μM concentrations over a 48 hour time period.
CEM cells (CCRF-CEM; ATCC No. CCL-119, American Type Culture Collection, Manassas, Va.) were grown in RPMI-1640 Media (Gibco-BRL, Rockville, Md.) supplemented with 10% Fetal Bovine Serum, penicillin (614 r1 g/mL), streptomycin (10 μg/mL) and HEPES buffer, pH 7.2 at 37° C., 5% CO2. DMSO was used as the vector for all drugs and added in the control experiments. Cell cultures were then treated with 10 μM, 1 μM, 0.1 μM or 10 ηM of the drug in duplicate and allowed to incubate at 37° C., 5% CO2. Cells were stained with 4% trypan blue solution in PBS, and counted under the microscope (Thomas Scientific, Fisher Scientific) in duplicate. This was repeated for Oh, 2 h, 6 h, 12 h, 24 h, and 48 h. The data points obtained were then plotted and a point-to-point curve was drawn to determine the effect of the drug on the cells.

CDK1 = experiment: Inhibition of CDK1 (method of Meijer et al.); assay type: biochemical
Excerpt: The inhibitory activity of compound 3 was less pronounced.

GSK-3β = GSK-3β (Homo sapiens, UniProt P49841); experiment: Inhibition of GSK-3β (method of Meijer et al.); assay type: biochemical
Sequence of GSK-3β (P49841 whole entry, species assumed): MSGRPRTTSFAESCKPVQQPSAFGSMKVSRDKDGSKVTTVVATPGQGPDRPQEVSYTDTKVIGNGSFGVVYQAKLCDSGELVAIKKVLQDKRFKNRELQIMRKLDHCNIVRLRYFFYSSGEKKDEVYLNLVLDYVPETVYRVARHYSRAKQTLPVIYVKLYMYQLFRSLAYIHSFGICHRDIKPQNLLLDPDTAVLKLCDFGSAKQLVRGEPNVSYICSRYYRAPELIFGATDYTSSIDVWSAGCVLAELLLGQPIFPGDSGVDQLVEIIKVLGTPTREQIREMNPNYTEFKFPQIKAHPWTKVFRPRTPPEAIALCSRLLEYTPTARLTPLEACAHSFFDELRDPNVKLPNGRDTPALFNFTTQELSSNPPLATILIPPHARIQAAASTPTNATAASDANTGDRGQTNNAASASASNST

CK1δ (h) = target: T1, CK1δ (h) (Homo sapiens, UniProt P48730); experiment: Upstate Kinase Profiler in vitro kinase assay, CK1δ; assay type: biochemical; conditions: 10 μM ATP
T1 construct: purchased Upstate, UK (Kinase Profiler service)
T1 sequence (P48730 whole entry): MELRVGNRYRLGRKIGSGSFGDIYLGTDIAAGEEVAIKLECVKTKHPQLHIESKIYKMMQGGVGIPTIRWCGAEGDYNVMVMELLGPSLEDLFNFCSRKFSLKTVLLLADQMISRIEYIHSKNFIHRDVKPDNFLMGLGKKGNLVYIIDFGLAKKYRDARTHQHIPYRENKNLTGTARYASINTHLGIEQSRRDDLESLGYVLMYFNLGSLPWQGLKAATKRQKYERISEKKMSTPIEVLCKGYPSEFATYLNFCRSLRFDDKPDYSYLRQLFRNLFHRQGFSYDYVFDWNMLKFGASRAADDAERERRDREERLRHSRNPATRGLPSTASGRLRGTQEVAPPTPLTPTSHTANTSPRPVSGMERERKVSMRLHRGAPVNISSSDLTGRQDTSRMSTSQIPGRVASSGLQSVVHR
Protocol: (§2) The potent inhibitory activity of the indoloazepines against checkpoint kinases Chk1 and Chk2 was determined. In vitro kinase Assay: Compound 2 was tested in vitro against the kinases indicated by Upstate, UK using a Kinase Profiler Assay according to the manufacturer's protocol. Briefly, in a final volume of 25 μl, the kinase was incubated with the desired buffer and the required polypeptide substrate, in presence of 10 mM magnesium acetate and γ-^33P-ATP (10 μM). After incubation for 40 minutes at room temperature, the reaction was stopped by the addition of 3% H3PO4 (5 μl). A 10 μl of the reaction was then spotted on a P30 filtermat and washed 3× in 75 mM H3PO4 and finally in methanol. Samples were then dried and signals counted on a scintillation counter. […] The results are shown in FIGS. 8 and 9 for CHK1 and CHK2.

CK2 (h) = target: T2, CK2 (h) (Homo sapiens, UniProt P68400); experiment: Upstate Kinase Profiler in vitro kinase assay, CK2; assay type: biochemical; conditions: 10 μM ATP
T2 construct: purchased Upstate, UK (Kinase Profiler service)
T2 sequence (P68400 whole entry): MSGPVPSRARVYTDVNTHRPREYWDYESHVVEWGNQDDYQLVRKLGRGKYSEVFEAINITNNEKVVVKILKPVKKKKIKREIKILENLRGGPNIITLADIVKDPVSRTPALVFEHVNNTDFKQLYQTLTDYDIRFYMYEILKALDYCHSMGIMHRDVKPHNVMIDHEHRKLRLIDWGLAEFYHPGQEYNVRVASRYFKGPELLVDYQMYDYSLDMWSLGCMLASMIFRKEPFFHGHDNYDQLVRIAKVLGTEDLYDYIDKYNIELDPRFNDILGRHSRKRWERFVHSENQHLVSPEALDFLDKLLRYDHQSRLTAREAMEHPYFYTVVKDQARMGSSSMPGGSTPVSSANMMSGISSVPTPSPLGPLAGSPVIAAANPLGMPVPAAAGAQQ
T2 sequence (P67870 whole entry partner): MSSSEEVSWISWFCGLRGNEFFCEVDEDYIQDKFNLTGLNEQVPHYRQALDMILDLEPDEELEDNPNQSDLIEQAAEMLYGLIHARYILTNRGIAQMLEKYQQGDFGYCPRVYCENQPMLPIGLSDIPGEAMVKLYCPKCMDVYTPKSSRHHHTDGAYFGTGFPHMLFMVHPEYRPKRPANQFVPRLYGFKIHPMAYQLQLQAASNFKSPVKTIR
Protocol: as §2

MEK1 (h) = target: T3, MEK1 (h) (Homo sapiens, UniProt Q02750); experiment: Upstate Kinase Profiler in vitro kinase assay, MEK1; assay type: biochemical; conditions: 10 μM ATP
T3 construct: purchased Upstate, UK (Kinase Profiler service)
T3 sequence (Q02750 whole entry): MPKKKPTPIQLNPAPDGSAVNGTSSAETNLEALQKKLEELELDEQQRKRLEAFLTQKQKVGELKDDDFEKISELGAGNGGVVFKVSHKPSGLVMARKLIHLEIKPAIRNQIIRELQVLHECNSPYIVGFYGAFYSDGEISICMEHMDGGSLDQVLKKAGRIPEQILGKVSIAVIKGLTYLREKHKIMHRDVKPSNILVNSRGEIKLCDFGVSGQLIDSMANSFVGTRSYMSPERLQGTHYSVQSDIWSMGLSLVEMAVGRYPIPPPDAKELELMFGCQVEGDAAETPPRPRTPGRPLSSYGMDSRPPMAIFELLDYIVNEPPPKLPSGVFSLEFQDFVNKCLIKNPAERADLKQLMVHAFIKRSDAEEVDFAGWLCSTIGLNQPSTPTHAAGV
Protocol: as §2

PKCα (h) = target: T4, PKCα (h) (Homo sapiens, UniProt P17252); experiment: Upstate Kinase Profiler in vitro kinase assay, PKCα; assay type: biochemical; conditions: 10 μM ATP
T4 construct: purchased Upstate, UK (Kinase Profiler service)
Protocol: as §2

PKCβII (h) = target: T5, PKCβII (h) (Homo sapiens, UniProt P05771); experiment: Upstate Kinase Profiler in vitro kinase assay, PKCβII; assay type: biochemical; conditions: 10 μM ATP
T5 construct: purchased Upstate, UK (Kinase Profiler service)
T5 sequence (P05771 1-673 isoform P05771-2): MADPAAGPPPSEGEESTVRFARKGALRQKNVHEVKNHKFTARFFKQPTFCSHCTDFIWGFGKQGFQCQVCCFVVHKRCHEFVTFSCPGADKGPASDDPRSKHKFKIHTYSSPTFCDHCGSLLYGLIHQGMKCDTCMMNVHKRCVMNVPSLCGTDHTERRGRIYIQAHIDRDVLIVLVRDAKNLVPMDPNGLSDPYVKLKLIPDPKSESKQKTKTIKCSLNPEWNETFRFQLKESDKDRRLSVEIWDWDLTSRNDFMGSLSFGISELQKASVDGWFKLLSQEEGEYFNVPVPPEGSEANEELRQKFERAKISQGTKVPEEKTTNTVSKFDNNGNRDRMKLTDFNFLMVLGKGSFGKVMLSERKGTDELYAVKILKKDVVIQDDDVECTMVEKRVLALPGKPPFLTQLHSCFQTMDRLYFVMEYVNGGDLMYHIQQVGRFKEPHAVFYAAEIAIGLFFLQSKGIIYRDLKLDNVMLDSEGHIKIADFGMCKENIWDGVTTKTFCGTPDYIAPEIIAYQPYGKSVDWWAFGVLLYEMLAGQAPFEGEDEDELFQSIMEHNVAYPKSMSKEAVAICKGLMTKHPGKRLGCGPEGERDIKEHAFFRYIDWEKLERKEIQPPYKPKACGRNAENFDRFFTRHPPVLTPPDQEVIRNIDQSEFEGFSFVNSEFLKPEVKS
Protocol: as §2

CHK1 [1] = target: T6, CHK1 (Homo sapiens, UniProt O14757); experiment: Upstate Kinase Profiler in vitro kinase assay, CHK1; assay type: biochemical; conditions: 10 μM ATP
T6 sequence (O14757 1-476): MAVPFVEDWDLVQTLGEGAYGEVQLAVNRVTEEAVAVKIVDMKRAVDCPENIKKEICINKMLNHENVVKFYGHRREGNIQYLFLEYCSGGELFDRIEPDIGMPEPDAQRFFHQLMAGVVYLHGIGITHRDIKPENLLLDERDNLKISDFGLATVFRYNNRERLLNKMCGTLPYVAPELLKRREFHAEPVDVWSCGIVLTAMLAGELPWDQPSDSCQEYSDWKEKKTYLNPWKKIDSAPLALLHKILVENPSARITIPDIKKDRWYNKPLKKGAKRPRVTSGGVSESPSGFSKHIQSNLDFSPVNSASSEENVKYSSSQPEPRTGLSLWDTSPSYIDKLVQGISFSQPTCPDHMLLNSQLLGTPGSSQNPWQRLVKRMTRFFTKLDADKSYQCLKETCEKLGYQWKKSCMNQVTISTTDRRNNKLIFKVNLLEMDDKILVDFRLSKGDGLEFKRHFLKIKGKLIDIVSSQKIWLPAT
Protocol: as §2, with “In” for “The potent inhibitory activity of the indoloazepines against checkpoint kinases Chk1 and Chk2 was determined. In”

CHK2 = target: T7, CHK2 (Homo sapiens, UniProt O96017); experiment: Upstate Kinase Profiler in vitro kinase assay, CHK2; assay type: biochemical; conditions: 10 μM ATP
T7 construct: purchased Upstate, UK (Kinase Profiler service)
T7 sequence (O96017 whole entry): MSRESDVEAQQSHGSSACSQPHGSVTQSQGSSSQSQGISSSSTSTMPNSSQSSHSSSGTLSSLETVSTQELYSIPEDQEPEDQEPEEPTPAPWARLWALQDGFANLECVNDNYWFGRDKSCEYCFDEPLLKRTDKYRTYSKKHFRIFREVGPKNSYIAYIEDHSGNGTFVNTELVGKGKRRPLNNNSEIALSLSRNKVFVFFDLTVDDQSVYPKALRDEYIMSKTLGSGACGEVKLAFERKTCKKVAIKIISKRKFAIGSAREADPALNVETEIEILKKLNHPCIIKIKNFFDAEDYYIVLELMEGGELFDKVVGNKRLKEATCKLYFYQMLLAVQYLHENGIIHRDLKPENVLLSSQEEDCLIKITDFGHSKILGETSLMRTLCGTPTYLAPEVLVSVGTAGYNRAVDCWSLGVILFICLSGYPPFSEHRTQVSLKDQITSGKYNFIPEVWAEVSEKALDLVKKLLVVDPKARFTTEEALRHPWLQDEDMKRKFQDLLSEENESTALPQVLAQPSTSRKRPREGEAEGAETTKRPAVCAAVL
Protocol: as §2, with “In” for “The potent inhibitory activity of the indoloazepines against checkpoint kinases Chk1 and Chk2 was determined. In”

NF-κB-DNA binding = experiment: EMSA for NF-κB-DNA binding in nuclear extracts of PMA/PHA-activated Jurkat cells; assay type: cell-based, human; conditions: for Inhibition of DNA-binding (relative to activated control) / Count per mm^2 NF-κB bands: EMSA; for Inhibition of DNA-binding (relative to activated control): PMA-activated Jurkat cells; for Count per mm^2 NF-κB bands: activated control 105.55
Protocol: Human Jurkat leukemia T-cells (clone E6-1; ATCC No. […] The Jurkat cells (1×10^6 cells/mL) are subsequently treated with various concentrations of the compounds in DMSO for 30 min. at 37° C. and 5% CO2 followed by PMA (50 ng/mL) and PHA ([…]) stimulation for an additional 30 minutes. The cells were harvested by centrifugation, washed in ice cold PBS and the nuclear extracts were prepared as previously described (Dignam et al., Nucl. Acids Res. 11: 1475-1489 (1983)). The protein concentration of the extracts was determined according to the Method of Bradford (1976) with BioRad reagents. Nuclear extracts were incubated for 20 minutes at room temperature with a double stranded Cy3 labeled NF-κB consensus oligonucleotide, [NT] ID NO:1). The binding mixture (25 μL) contained 10 mM HEPES-NaOH pH 7.9, 4 mM Tris-HCL, pH 7.9, 6.0 mM KCl, 1 mM EDTA, 1 mM DTT, 10% glycerol, 0.3 mg/mL bovine serum albumin, and 1 μg of poly (dI:dC). The binding mixtures (10 μg of nuclear extract protein) were incubated for 20 minutes at room temperature with 0.16 pmol of Cy3 labeled oligonucleotide. The mixture was loaded on a 4% polyacrylamide gel prepared in 1× TRIS borate/EDTA buffer and was electrophoresed at 200 V for 20 minutes. After electrophoresis the gel was analyzed using a phosphorimager (BIORAD FX PLUS, Biorad Laboratories, Inc., Hercules, Calif.) for detection of NF-κB-DNA binding.

CHK1 [2] = target: T6, CHK1; conditions: natural products, general statement; cited from earlier work

NC1=N/C(=C2/CCNC(=O)c3[nH]c4ccccc4c32)C(=O)N1 [Compound 2, 5-(2-amino-5-oxo-1,5-dihydro-imidazol-4-ylidene)-3,4,5,10-tetrahydro-2H-azepino[3,4-b]indol-1-one]
IC50 (IL-2 production; Homo sapiens, Jurkat, 24 h): 3500 nM
IC50 (IL-2 production; 24 hr): 3550 nM
IC50 (TNF-α production): 8160 nM
IC50 (TNF-α production; Homo sapiens, THP-1, 3 h): 8200 nM
GI50 (CEM leukemia cells): 1730 nM
IC50 (CDK1): 400 nM
IC50 (GSK-3β): 150 nM
IC50 (CK1δ (h)): 1350 nM
IC50 (CK2 (h)): > 10000 nM
IC50 (MEK1 (h)): 89 nM
IC50 (PKCα (h)): 2540 nM
IC50 (PKCβII (h)): 3380 nM
IC50 (CHK1 [1]): 237 nM
IC50 (CHK2): 8 nM

Cn1c2c(c3ccccc31)C(=C1N=C(N)NC1=O)CCNC2=O [Compound 3, 5-(2-amino-5-oxo-1,5-dihydro-imidazol-4-ylidene)-10-methyl-3,4,5,10-tetrahydro-2H-azepino[3,4-b]indol-1-one]
IC50 (IL-2 production; Homo sapiens, 24 hr): > 10000 nM
Inhibition of IL-2 production (in words) (IL-2 production; Jurkat cells, measured up to 10 μM): no significant inhibition of IL-2 production
Inhibition of DNA-binding (relative to activated control) (NF-κB-DNA binding; 1.0 μM): 0%
Count per mm^2 NF-κB bands (NF-κB-DNA binding; 1.0 μM): 118.82 Count per mm^2
Inhibition of DNA-binding (relative to activated control) (NF-κB-DNA binding; 5.0 μM): 0%
Count per mm^2 NF-κB bands (NF-κB-DNA binding; 5.0 μM): 121.76 Count per mm^2
Inhibition of NF-κB-DNA binding (in words) (NF-κB-DNA binding; measured up to concentrations of 5 μM): did not appear to substantially inhibit DNA binding
IC50 (TNF-α production; Homo sapiens): > 10000 nM
Inhibition of TNF-α production (in words) (TNF-α production; tested up to 10 μM): did not have any significant activity
GI50 (CEM leukemia cells): 14300 nM
IC50 (CDK1): > 10000 nM
IC50 (GSK-3β): > 10000 nM
melting point: > 260 °C

NC1=NC(=O)/C(=C2\CCNC(=O)c3[nH]c(Br)cc32)N1 [Hymenialdisine 1, hymenialdisine, reference compound]
IC50 (IL-2 production; Homo sapiens, Jurkat, 24 h): 2400 nM
IC50 (IL-2 production; 24 hr): 2410 nM
Count per mm^2 NF-κB bands (NF-κB-DNA binding; 1.0 μM): 102.14 Count per mm^2
Count per mm^2 NF-κB bands (NF-κB-DNA binding; 5.0 μM): 57.06 Count per mm^2
IC50 (TNF-α production): 1360 nM
IC50 (TNF-α production; Homo sapiens, THP-1, 3 h): 1400 nM
GI50 (CEM leukemia cells): 1610 nM

S=C(S)N1CCCC1 [PDTC, pyrrolidinedithiocarbamate, reference compound]
IC50 (IL-2 production; Homo sapiens, 24 hr): 5120 nM
Inhibition of DNA-binding (relative to activated control) (NF-κB-DNA binding; 1.0 μM): 30%
Count per mm^2 NF-κB bands (NF-κB-DNA binding; 1.0 μM): 73.48 Count per mm^2
Inhibition of DNA-binding (relative to activated control) (NF-κB-DNA binding; 5.0 μM): 51%
Count per mm^2 NF-κB bands (NF-κB-DNA binding; 5.0 μM): 51.68 Count per mm^2
IC50 (TNF-α production; Homo sapiens): 6110 nM

NC1=N/C(=C2/CCNC(=O)c3[nH]ccc32)C(=O)N1 [debromohymenialdisine]
Inhibition of checkpoint kinase CHK1 (in words) (CHK1 [2]): low micromolar concentrations
